The record followed here is ChEMBL document CHEMBL1201862, “PubChem BioAssay data set” (2004).

Some test systems named below: A498; ACHN; CAKI-1; HCC 2998; HCT-116; HCT-15; HT-29; IGROV-1; K562; KM12; MDA-MB-231; NCI-H23; NCI/ADR-RES; OVCAR-8; PC-3; RXF 393; SF-268; SF-295; SK-MEL-5; SW-620.
Common to all, as to test: NCI anticancer screen, dose series, 48 h

Molecules are shown by their SMILES.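 1) Cells in 96-well plates. 2) Compound, 48 h, 5 concentrations. 3) Linear interpolation between surrounding doses. 4) Unreached endpoint = highest concentration. At the GI50, growth is halved.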 Calls of active or inactive are those of the source. Cut-off read from the data, not from the text of the source: active = GI50 up to about 1.1 µM and inactive = higher. Starred links: 1 amine or outer side, 2 acyl side, 3 side chain; linkers in the order of their positions; H or OH if unused. Positions of bridges follow the written chain, without caps; N, C: chain ends. Non-standard residues stand in square brackets, D forms with d. Residues, ends and D or L forms follow the SMILES beside them. Chains are numbered I, II in the order given. Actinocin(1to9) = Cc1c2oc3c(C)ccc(C(=O)[*:2])c3nc-2c(C(=O)[*:1])c(N)c1=O; aThr = C[C@H](O)[C@H](N)C(=O)O; NMeV = CN[C@H](C(=O)O)C(C)C; Sar = CNCC(=O)O Where only a bound is given, the exact number is not on record here.

Take `COc1ccc(-c2cc(-c3ccccc3)n(C3OCC(OC(C)=O)C(OC(C)=O)C3OC(C)=O)c(=S)c2C#N)cc1` (stereo not given): the GI50 in the assay with A498 was 72.9 µM (inactive); in the assay with ACHN it was 37.4 µM (inactive); in the assay on CAKI-1 it was 67.5 µM (inactive); in the assay on HCC 2998, > 100 µM (inactive); in the assay with HCT-116, 86.5 µM (inactive); with HCT-15 it was > 100 µM. Besides, the GI50 with HT-29 is > 100 µM (inactive); in the assay on IGROV-1 it was > 100 µM (inactive); in the assay on K562 it was > 100 µM (inactive); in the assay with KM12, 85.3 µM (inactive); in the assay with MDA-MB-231, > 100 µM (inactive); in the assay with NCI-H23, > 100 µM (inactive). Also, the GI50 in the assay with NCI/ADR-RES was > 100 µM (inactive); with OVCAR-8, > 100 µM (inactive); with PC-3, > 100 µM (inactive); in the assay on RXF 393, 37.5 µM (inactive); in the assay on SF-268, > 100 µM (inactive); with SF-295, 56.4 µM (inactive). For the same compound, the GI50 in the assay with SK-MEL-5 and with SW-620 was > 100 µM (inactive) throughout.

Regarding `Cc1c2oc3c(C)ccc(C(=O)N[C@@H]4C(=O)N[C@H](C(C)C)C(=O)N5CCC[C@H]5C(=O)N(C)CC(=O)N(C)[C@@H](C(C)C)C(=O)O[C@H]4C)c3nc-2c(C(=O)N[C@@H]2C(=O)N[C@H](C(C)C)C(=O)N3CCC[C@H]3C(=O)N(C)CC(=O)N(C)[C@@H](C(C)C)C(=O)O[C@H]2C)c(N)c1=O` (I: [aThr][dV]P[Sar][NMeV] / II: [aThr][dV]P[Sar][NMeV]; ester I:1-I:C, II:1-II:C; linker I:N-II:N via Actinocin(1to9)), the GI50 with A498 was 0.00299 µM (active); with ACHN, 0.00371 µM (active); with CAKI-1, 0.00484 µM (active); in the assay on HCC 2998, 0.00275 µM (active); in the assay with HCT-116, 0.000332 µM (active); with HCT-15, 0.02 µM. The GI50 is 0.000759 µM (active) with HT-29; 0.00217 µM (active) with IGROV-1; 0.000492 µM (active) with K562; 0.00128 µM (active) in the assay on KM12; 0.00455 µM (active) in the assay with MDA-MB-231; 0.00219 µM (active) in the assay with NCI-H23. Moreover, the GI50 was 0.098 µM (active) in the assay with NCI/ADR-RES; 0.00165 µM (active) with OVCAR-8; 0.00134 µM (active) with PC-3; 0.00258 µM (active) with RXF 393; 0.00148 µM (active) in the assay on SF-268; 0.00203 µM (active) with SF-295. Moreover, the GI50 with SK-MEL-5 is 0.00115 µM (active); with SW-620, 0.000489 µM (active).

As to `CC(C)=CCC[C@@H](C)C1=CC(=O)C(C)=C(O)C1=O` [ISOPEREZONE], the GI50 with A498 was 17 µM (inactive); in the assay with ACHN, 3.85 µM (inactive); in the assay on CAKI-1, 4.95 µM (inactive); with HCC 2998 it was 17.1 µM (inactive); in the assay on HCT-116, 4.08 µM (inactive); in the assay on HCT-15, 2.66 µM. Further, the GI50 in the assay with HT-29 is 7.16 µM (inactive); in the assay on IGROV-1 it was 9.2 µM (inactive); in the assay with K562, 1.58 µM (inactive); in the assay with KM12, 5.09 µM (inactive); in the assay on MDA-MB-231, 6.38 µM (inactive); with NCI-H23, 6.75 µM (inactive). Also, the GI50 is 3.19 µM (inactive) with NCI/ADR-RES; 2.15 µM (inactive) in the assay with OVCAR-8; 5.01 µM (inactive) in the assay with PC-3; 2.67 µM (inactive) in the assay on RXF 393; 10.4 µM (inactive) in the assay with SF-268; 14.1 µM (inactive) in the assay on SF-295. Moreover, the GI50 with SK-MEL-5 is 6.12 µM (inactive); in the assay on SW-620 it was 4.02 µM (inactive).
